The test system of one assay is lettuce. The assay is described as follows: External application of compound to lettuce seeds on agar, root length. The class given is in vivo. Particulars: external application concentration 500 mg/L in 0.8% agar; 28° C. in the dark for 3 days; compared with control. The protocol: (§1) The reasons for choosing lettuce and barnyardgrass in the external application experiment were: lettuce was a common indicator crop reported in the literature for external application of allelopathic experiments, while barnyardgrass was the main weed in paddy fields.
(§2) (1) The compound of tricin-5-O-glucopyranoside was dried to a powder with a centrifugal concentrator and weighed, and an appropriate amount of sterile water was added to give a final concentration of 10 mg/mL.
(§3) (2) 500 mL of 0.8% agar was prepared and sterilized in an autoclave.
(§4) (3) The sterilized agar was placed in an ultra-clean bench and cooled to room temperature (note: the medium was not allowed to solidify), and then 4.75 mL of medium was accurately pipetted into a sterilized 10 mL centrifuge tube. 250 μL of the 10 mg/mL compound solution was added to give a final compound concentration of 500 mg/L. The medium containing the compound was quickly poured into a 10 cm×10 cm square dish, and the square dish was shaken quickly to make the medium evenly spread in the square dish. A medium in which 250 μL of sterile water was added to 4.75 mL of the medium was used as a control.
(§5) (4) Barnyardgrass and lettuce seeds were washed several times with distilled water, respectively, and then dried on sterile filter paper. […]
(§6) (7) Phenotypic statistics: the root length of each treated material was counted after 3 days. […]

The next assay relates to barnyardgrass. The assay is described as follows: External application of compound to barnyardgrass seeds on agar, root length. The class given is in vivo. The following applies: external application concentration 500 mg/L in 0.8% agar; 28° C. in the dark for 3 days; compared with control. The protocol: as §1, §2, §3, §4, §5, §6
For assay [1], the system named is Os07g0503900 recombinant protein. The assay is described as follows: In vitro enzyme activity of Os07g0503900 (glycosylation of tricin with UDPG, UPLC-MS detection). Particulars: glycosyl donor UDPG; 30° C. for 1 h; pH 7.0; product tricin-5-O-glucopyranoside. The class given is biochemical, rice. As to the method: (1) The enzymatic reaction system was: Tris-HCl (pH 7.0, 50 mM, containing 10 mM DTT) 38 μL, 10 mM glycosyl acceptor (the glycosyl acceptor of Os07g0503900 was tricin) 1 μL, 100 mM glycosyl donor (UDPG) 1 μL, and 10 μL of the Os07g0503900 recombinant protein obtained in step 2 (Os07g0503900 protein concentration was 3.77 μg/μL). The reaction was carried out in a water bath at 30° C. for 1 h, and then quenched with an equal volume of methanol. A sample of the protein obtained from the E. coli transformed into the pMAL-c2X empty vector according to the above-mentioned step 2 was added as a control.
(2) Enzyme activity product detection: The sample in (1) was centrifuged at 4° C., 12,000 rpm for 10 min, and 30 μL was taken for detection by UPLC-MS (Agilent 1290UPLC-6540Q-TOF). Mobile phase A phase: 0.1% formic acid aqueous solution, % represented volume percentage; B phase: acetonitrile. Elution gradient: 0-2 min: 5% B-10% B, 2-12 min: 10% B-25% B, 12-18 min: 25% B-70% B, 18-23 min: 70% B-90% B, 23-25 min: 90% B-100% B, 25-30 min: 100% B, post-run for 5 min, % all represented volume percentage. The flow rate was 0.3 mL/min, the column temperature: 40° C., and the injection volume: 5 μL. Electrospray ionization (ESI) was used for detection in positive ion mode. The carrier gas was high-purity nitrogen at a pressure of 40 psi and a temperature of 325° C.

With `COc1cc(-c2cc(=O)c3c(O[C@@H]4O[C@H](CO)[C@@H](O)[C@H](O)[C@H]4O)cc(O)cc3o2)cc(OC)c1O` [tricin-5-O-glucopyranoside], the “inhibitory effect on the growth of lettuce (root length)” value in the assay with lettuce is “very significant ability to inhibit the growth”. The “inhibitory effect on the growth of barnyardgrass (root length)” value in the assay on barnyardgrass is “very significant ability to inhibit the growth”.

Turning to `COc1cc(-c2cc(=O)c3c(O)cc(O)cc3o2)cc(OC)c1O` [tricin], the “inhibitory effect on the growth of lettuce (root length)” value in the assay with lettuce was “not obvious”. In addition, the “inhibitory effect on the growth of barnyardgrass (root length)” value in the assay on barnyardgrass is given as “not obvious”. The “glycosylation of tricin by Os07g0503900 in vitro (new chromatographic peak vs empty vector control)” value in assay [1] is reported as “Os07g0503900 can catalyze the glycosylation of tricin in vitro”.

The values above are taken from patent US12516341B2, “Use of flavonoid glycoside substance and glycosyltransferase gene for regulating resistance of plants to weeds” (ZHONGKENONGFU(BEIJING) BIOTECHNOLOGY CO., LTD, priority 2020, dated 2026).
